In ChEMBL document CHEMBL1201862, “PubChem BioAssay data set” (2004):
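Cultured in 96-well plates, cells were exposed to test compound for 48 hours across five concentrations. GI50 = concentration required for 50% inhibition of growth.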 The source made the active and inactive calls. No stated cut-off is given here; in the data, active = GI50 up to about 1.1 µM and inactive = higher.

Experiments:
Experiment in all cases: growth of human tumour cells (NCI), 48 h
DU-145 = system: DU-145
NCI-H226 = system: NCI-H226
RPMI-8226 = system: RPMI-8226
OVCAR-4 = system: OVCAR-4
SK-OV-3 = system: SK-OV-3
SF-268 = system: SF-268
NCI-H522 = system: NCI-H522
MOLT-4 = system: MOLT-4
SK-MEL-5 = system: SK-MEL-5
OVCAR-8 = system: OVCAR-8
HCT-15 = system: HCT-15
NCI-H460 = system: NCI-H460
IGROV-1 = system: IGROV-1
BT-549 = system: BT-549
K562 = system: K562
A498 = system: A498
Malme-3M = system: Malme-3M
NCI-H23 = system: NCI-H23
HCT-116 = system: HCT-116
LOX IMVI = system: LOX IMVI

SMILES | GI50 (DU-145) | GI50 (NCI-H226) | GI50 (RPMI-8226) | GI50 (OVCAR-4) | GI50 (SK-OV-3) | GI50 (SF-268) | GI50 (NCI-H522) | GI50 (MOLT-4) | GI50 (SK-MEL-5) | GI50 (OVCAR-8) | GI50 (HCT-15) | GI50 (NCI-H460) | GI50 (IGROV-1) | GI50 (BT-549) | GI50 (K562) | GI50 (A498) | GI50 (Malme-3M) | GI50 (NCI-H23) | GI50 (HCT-116) | GI50 (LOX IMVI)
CCOC(=O)/C(C#N)=C(/NS(=O)(=O)c1cc(C)c(Cl)cc1[S-])[n+]1ccc(N(C)C)cc1 | > 100 µM (inactive) | > 100 µM (inactive) | > 100 µM (inactive) | > 100 µM (inactive) | > 100 µM (inactive) | > 100 µM (inactive) | > 100 µM (inactive) | > 100 µM (inactive) | > 100 µM (inactive) | > 100 µM (inactive) | > 100 µM | > 100 µM (inactive) | > 100 µM (inactive) | > 100 µM (inactive) | > 100 µM (inactive) | > 100 µM (inactive) | > 100 µM (inactive) | > 100 µM (inactive) | > 100 µM (inactive) | –
CCOc1cc(-c2nc3cc(F)ccc3s2)ccc1O | 17.6 µM (inactive) | 17 µM (inactive) | 10.7 µM (inactive) | 26.2 µM (inactive) | 18.7 µM (inactive) | 15.7 µM (inactive) | 11.5 µM (inactive) | – | 16.6 µM (inactive) | 15.8 µM (inactive) | 14.9 µM | 17.3 µM (inactive) | 12.5 µM (inactive) | 16.1 µM (inactive) | < 0.01 µM (active) | 12.6 µM (inactive) | 15.3 µM (inactive) | 18 µM (inactive) | 20.6 µM (inactive) | 16 µM (inactive)
O=C1CC2OCC=C3CN4CCC56c7ccccc7N1C5C2C3CC46O (stereo not given) | > 100 µM (inactive) | > 100 µM (inactive) | > 100 µM (inactive) | > 100 µM (inactive) | > 100 µM (inactive) | > 100 µM (inactive) | 47.5 µM (inactive) | > 100 µM (inactive) | > 100 µM (inactive) | > 100 µM (inactive) | > 100 µM | > 100 µM (inactive) | > 100 µM (inactive) | > 100 µM (inactive) | > 100 µM (inactive) | 48.1 µM (inactive) | > 100 µM (inactive) | > 100 µM (inactive) | > 100 µM (inactive) | > 100 µM (inactive)
CCOC(=O)c1nc2cc(C(F)(F)F)ccc2nc1Nc1ccc(C(=O)OC)s1 | 54.6 µM (inactive) | 27 µM (inactive) | 30.7 µM (inactive) | 31 µM (inactive) | 47.3 µM (inactive) | 44.9 µM (inactive) | 19.7 µM (inactive) | 27.1 µM (inactive) | 40.5 µM (inactive) | 41.2 µM (inactive) | 34.2 µM | 33 µM (inactive) | 40.9 µM (inactive) | 25.7 µM (inactive) | 31.6 µM (inactive) | 40.9 µM (inactive) | 38.5 µM (inactive) | 30 µM (inactive) | 35.3 µM (inactive) | 30.5 µM (inactive)
COC(=O)[C@H](CCSC)NC(=O)c1ccc(CNC(=O)/C(C)=C/c2ccccc2)cc1 | 37.9 µM (inactive) | > 100 µM (inactive) | > 100 µM (inactive) | 31.1 µM (inactive) | 39.4 µM (inactive) | 25.8 µM (inactive) | 10.8 µM (inactive) | > 100 µM (inactive) | 34.8 µM (inactive) | 23.3 µM (inactive) | > 100 µM | 26.6 µM (inactive) | 50.1 µM (inactive) | 24.7 µM (inactive) | > 100 µM (inactive) | > 100 µM (inactive) | 15.3 µM (inactive) | 45.8 µM (inactive) | 50.9 µM (inactive) | 33.1 µM (inactive)
O=c1oc2ccc3ccccc3c2cc1-c1nc2ccc([N+](=O)[O-])cc2o1 | > 58.6 µM (inactive) | > 51.2 µM (inactive) | > 51.1 µM (inactive) | 22.5 µM (inactive) | > 30.4 µM (inactive) | 20.5 µM (inactive) | 18.9 µM (inactive) | > 67.6 µM (inactive) | 10.3 µM (inactive) | > 100 µM (inactive) | 69 µM | 36.1 µM (inactive) | 28.4 µM (inactive) | > 44.5 µM (inactive) | > 62.1 µM (inactive) | 38.5 µM (inactive) | 59.4 µM (inactive) | 41.2 µM (inactive) | 48.6 µM (inactive) | 22.9 µM (inactive)
NC(=O)C1=CC2C3C=CC2(O)C(=O)OC3O1 (stereo not given) | 3.89 µM (inactive) | 2.31 µM (inactive) | 1.57 µM (inactive) | 4.33 µM (inactive) | 13.5 µM (inactive) | 3.73 µM (inactive) | 1.83 µM (inactive) | 1.88 µM (inactive) | 2.38 µM (inactive) | 2.46 µM (inactive) | 3.39 µM | 17.9 µM (inactive) | 2.92 µM (inactive) | 4.06 µM (inactive) | 7.29 µM (inactive) | 32.7 µM (inactive) | 1.82 µM (inactive) | 2.91 µM (inactive) | 2.62 µM (inactive) | 2.14 µM (inactive)
COc1cc(/C=C2\CCC(CN(C)C)C2=O)ccc1OC(=O)c1ccccc1 (stereo not given) | 16.3 µM (inactive) | 18.2 µM (inactive) | 2.31 µM (inactive) | 12.4 µM (inactive) | 23.1 µM (inactive) | 12.3 µM (inactive) | 4 µM (inactive) | 2.28 µM (inactive) | 15.5 µM (inactive) | 8.59 µM (inactive) | 8.17 µM | 19.3 µM (inactive) | 13.8 µM (inactive) | 16.1 µM (inactive) | 2.32 µM (inactive) | 18.3 µM (inactive) | 15.9 µM (inactive) | 16.1 µM (inactive) | 6.68 µM (inactive) | 3.86 µM (inactive)
OC1c2c(ccc3c2CCC3)CC12Cc1ccccc1C2 (stereo not given) | 16.3 µM (inactive) | 13.4 µM (inactive) | 14.7 µM (inactive) | 16.4 µM (inactive) | 15.7 µM (inactive) | 14.7 µM (inactive) | 16.3 µM (inactive) | 26.6 µM (inactive) | 15.6 µM (inactive) | 17.7 µM (inactive) | 16.5 µM | 17.1 µM (inactive) | 17.7 µM (inactive) | 16.9 µM (inactive) | 17.1 µM (inactive) | 16.2 µM (inactive) | 12 µM (inactive) | 16.8 µM (inactive) | 16 µM (inactive) | 15.9 µM (inactive)
O=C1CCCCC/C1=C\c1ccc(F)cc1 | > 100 µM (inactive) | > 100 µM (inactive) | 45.2 µM (inactive) | 95.5 µM (inactive) | > 100 µM (inactive) | > 100 µM (inactive) | 51.5 µM (inactive) | 67.3 µM (inactive) | 44.8 µM (inactive) | – | > 100 µM | 50.1 µM (inactive) | > 100 µM (inactive) | 99.1 µM (inactive) | > 100 µM (inactive) | > 100 µM (inactive) | > 100 µM (inactive) | > 100 µM (inactive) | 89.3 µM (inactive) | 94 µM (inactive)
CC(C)(N)C(=O)N[C@@H]1C(=O)N2[C@@H]1SC(C)(C)[C@@H]2C(=O)O | > 100 µM (inactive) | > 100 µM (inactive) | > 100 µM (inactive) | > 100 µM (inactive) | > 100 µM (inactive) | > 100 µM (inactive) | > 100 µM (inactive) | – | > 100 µM (inactive) | > 100 µM (inactive) | > 100 µM | > 100 µM (inactive) | > 100 µM (inactive) | > 100 µM (inactive) | > 100 µM (inactive) | > 100 µM (inactive) | > 100 µM (inactive) | > 100 µM (inactive) | > 100 µM (inactive) | > 100 µM (inactive)
COc1ccc2c(c1)-c1c(c3cc(OC)ccc3n1CCN1CCOCC1)CC2 | 37.8 µM (inactive) | 14.7 µM (inactive) | 20.5 µM (inactive) | 54 µM (inactive) | > 100 µM (inactive) | 55 µM (inactive) | 23.3 µM (inactive) | 11.9 µM (inactive) | 25.4 µM (inactive) | 28.6 µM (inactive) | 14.5 µM | 22.8 µM (inactive) | 18.1 µM (inactive) | 28.4 µM (inactive) | 13.2 µM (inactive) | 46.7 µM (inactive) | 28.2 µM (inactive) | 52.1 µM (inactive) | 27.2 µM (inactive) | –
C/C(C=O)=N\Nc1cc(C)c2ccccc2n1 | 15.5 µM (inactive) | 6.52 µM (inactive) | 11.9 µM (inactive) | 12.8 µM (inactive) | 20.9 µM (inactive) | 16.9 µM (inactive) | 17.1 µM (inactive) | 16.2 µM (inactive) | 15.6 µM (inactive) | 17.5 µM (inactive) | 10 µM | – | 16.9 µM (inactive) | 12.8 µM (inactive) | 13.4 µM (inactive) | 15.2 µM (inactive) | – | 12.4 µM (inactive) | 14.5 µM (inactive) | 13.2 µM (inactive)
CCOC(=O)c1nc2ccc(C(F)(F)F)cc2nc1Oc1ccc(OC)cc1 | > 100 µM (inactive) | > 100 µM (inactive) | > 100 µM (inactive) | > 100 µM (inactive) | > 100 µM (inactive) | > 100 µM (inactive) | – | > 100 µM (inactive) | > 100 µM (inactive) | > 100 µM (inactive) | > 100 µM | > 100 µM (inactive) | > 100 µM (inactive) | > 100 µM (inactive) | > 100 µM (inactive) | > 100 µM (inactive) | 62.8 µM (inactive) | – | > 100 µM (inactive) | > 100 µM (inactive)
CCOC(=O)c1nnsc1NC(=O)NN | > 100 µM (inactive) | > 100 µM (inactive) | > 100 µM (inactive) | – | > 100 µM (inactive) | > 100 µM (inactive) | > 100 µM (inactive) | > 10 µM (inactive) | > 100 µM (inactive) | > 100 µM (inactive) | > 100 µM | > 100 µM (inactive) | > 100 µM (inactive) | > 100 µM (inactive) | 41.1 µM (inactive) | > 100 µM (inactive) | > 100 µM (inactive) | > 100 µM (inactive) | > 100 µM (inactive) | 82.2 µM (inactive)
